In US20090088417A1, “VANILLOID RECEPTOR ANTAGONIST FOR PREVENTION AND TREATMENT OF DRUG DEPENDENCE AND ADDICTION” (priority 2006, published 2009):
Entries after “also recorded” stand apart in the source; their conditions may differ.

Experiments:
[1] = system: male ICR mouse; assay: Conditioned place preference (CPP) test, development of psychological dependence on cocaine; assay type: in vivo; conditions: measured on ninth day
Method: In the present invention, a conditioned place preference (CPP) test is used to monitor the degree of alleviation in drug dependence and addiction. The CPP system used in the present invention includes a white box, a black box and a pathway connecting the two boxes with each other. Mice are used as test animals and effects on preference/aversion are analyzed by measuring residence times of the mice in the two boxes.
Development of psychological dependence on cocaine was determined according to the CPP (conditioned place preference) test. […]
Step 1 (Basic Test): On the first day of the test, the Guillotine door between the two boxes was opened, and a male ICR mouse having a body weight of 20˜25 g made available by MJ Ltd. (Seoul) was accommodated in the CPP system so that it could move freely therein for 5 minutes. […] Then, residence times of the mouse in the two boxes were measured for 15 minutes to obtain reference values. […]
Step 3 (Test Step): On the ninth day of the test, the Guillotine door between the two boxes was opened, a pathway was provided in the middle of the boxes, and then a mouse, to which no drug was administered, was allowed to remain in the two boxes for 15 minutes. Then, residence times in the white box and in the black box were measured and compared to the values measured on the second day of the test. […]

[2] = cited from earlier work
[3] = system: mice; assay: Locomotor activity, behavioral sensitization caused by cocaine (displacement from spontaneous movements); assay type: in vivo, mouse
Method: Behavioral sensitization in recurrence of psychological dependence on cocaine was determined according to the locomoter activity. See [Yoo et al. 2003, Neurosci Lett. 433, pp 37-40].
Test animals were divided into four groups as follows: physiological saline was administered to the first test group, cocaine was administered to the second test group, cocaine +2.5 mg/kg of capsazepine (pretreatment) was administered to the third test group, and cocaine +5.0 mg/kg of capsazepine (pretreatment) was administered to the fourth test group.
A locomotor box was used for the test. […] The bottom of the box was covered with a black sheet having substantially the same size as the former.
Step (1)—Basic Test: On the first day, mice were allowed to move freely in the locomotor box for 30 minutes so that they were accommodated.
After the accommodation period, 15 mg/kg of cocaine was administered to the mice via intraperitoneal injection, and then the mice were allowed to remain in the locomotor box. The displacement from spontaneous movements of the mice was measured. […] On the sixth day of the test, the drug was administered again to the mice and the displacement from spontaneous movements was measured. […] Then, displacement from spontaneous movements was measured. […]

[4] = system: mice; assay: CPP test, recurrence of psychological dependence on cocaine after withdrawal; assay type: in vivo, mouse; conditions: capsazepine 10 mg/kg single-dose pretreatment + cocaine on fifteenth day after 5 days of saline; p<0.05 vs cocaine group
Method: The following CPP system was used to perform the test. The CPP system included two boxes, each having a dimension of 15 cm×15 cm×15 cm (width×depth×height). One of the boxes was made of white acryl sheets on three sides thereof, while the other was made of black acryl sheets on three sides thereof. […] Between the two boxes, a gray-colored pathway having a dimension of 3×3×7.5 cm was provided. Also, a Guillotine door capable of interrupting the pathway was provided. […] The test was performed under an illuminance maintained at 20 Lux.
Test animals were divided into four groups. Psychological saline was administered to the first test group (10 mice), and cocaine was administered to the remaining second test group, third test group and fourth test group (30 mice in total). On the ninth day of the test, development of a dependence on cocaine was checked, and then saline was administered alone for the subsequent 5 days to allow the mice to lose the cocaine dependence. […] Residence times in the CPP boxes were measured as described above.

With `COc1cc(CNC(=O)CCCC/C=C/C(C)C)ccc1O` [capsaicin] the “Effect on development of psychological dependence on cocaine (residence times in CPP boxes)” value ([1]; capsaicin 0.3 mg/kg pretreatment + cocaine, p<0.01 vs saline group) was “increases dependence on cocaine; also recorded: significant increase in psychological dependence on cocaine”.
For `Oc1cc2c(cc1O)CN(C(=S)NCCc1ccc(Cl)cc1)CCC2` [capsazepine], the “Analgesic actions in an animal test” value ([2]; Kwak et al., 1998, Santos and Calixto, 1997) is given as “effective for providing analgesic actions”, the “Analgesic or anti-inflammatory effect” value ([2]; Perkins and Campbell, 1992) is given as “does not provide an analgesic or anti-inflammatory effect” and the “Inhibition of behavioral sensitization after drug withdrawal (displacement from spontaneous movements, 60 minutes)” value ([3]; capsazepine 5 mg/kg pretreated group, cocaine 15 mg/kg on twelfth day after withdrawal period of five days, p<0.01) is given as “completely inhibited”. For the same molecule, the “Inhibition of behavioral sensitization (displacement from spontaneous movements, 60 minutes)” value ([3]; capsazepine 5 mg/kg pretreatment + cocaine 15 mg/kg i.p. repeated, sixth day of the test, p<0.001) was “significantly inhibits behavioral sensitization caused by cocaine; also recorded: behavioral sensitization was inhibited”, the “Inhibition of recurrence of psychological dependence on cocaine (residence times in CPP boxes)” value [4] was “significantly inhibits recurrence of dependence on cocaine; also recorded: showed inhibition of such recurrence” and the “Inhibition of development of psychological dependence on cocaine (residence times in CPP boxes)” value ([1]; capsazepine 2.5 and 5 mg/kg i.p., 30 minutes before cocaine 15 mg/kg i.p., p<0.05 vs cocaine group) was “significantly inhibits development of psychological dependence on cocaine”.
